The text below walks through data of US8766005B2, “Process for producing fingolimod salts” (Ratiopharm GmbH, priority 2009, dated 2014).

This data set is described as follows: dissolution profile before and after storage. Type of data set: physicochemical. The note with it: during shelf life.

Consider `CCCCCCCCc1ccc(CCC(N)(CO)CO)cc1.Cl` [polymorphic form B, fingolimod hydrochloride], for which the “dissolution profile before and after storage” value is recorded as “constant”.
